Experiment: xn = mol fraction of the nth substance listed
Conditions: Liquid

CCO [ethanol] + O
mass density [kg/m3]
Conditions	100 kPa	10000 kPa	20000 kPa	30000 kPa	40000 kPa
298.15 K, x1 = 0.003	995.3	999.8	1004.2	1008.5	1012.7
298.15 K, x1 = 0.0042	994.5	998.9	1003.2	1007.4	1011.5
298.15 K, x1 = 0.0082	993	997.3	1001.7	1005.9	1010
298.15 K, x1 = 0.0119	991.5	995.8	1000.1	1004.3	1008.3
298.15 K, x1 = 0.0158	989.8	994	998.2	1002.4	1006.4
298.15 K, x1 = 0.0184	988.4	992.6	996.8	1000.9	1005
298.15 K, x1 = 0.0219	987.6	991.7	995.9	1000.1	1004.1
298.15 K, x1 = 0.0255	986	990.2	994.4	998.4	1002.4
298.15 K, x1 = 0.0279	984.7	988.7	992.9	996.9	1000.8
298.15 K, x1 = 0.0315	984	988	992.1	996.1	1000
298.15 K, x1 = 0.0366	981.6	985.7	989.8	993.8	997.6
298.15 K, x1 = 0.0392	980.7	984.7	988.6	992.6	996.4
298.15 K, x1 = 0.0439	979.2	983.3	987.3	991.2	995.1
298.15 K, x1 = 0.0483	977.5	981.6	985.6	989.5	993.3
298.15 K, x1 = 0.0516	977.1	981	985.1	988.9	992.7
298.15 K, x1 = 0.0559	975.8	979.8	983.8	987.7	991.5
298.15 K, x1 = 0.06	974.5	978.5	982.4	986.3	990.1
298.15 K, x1 = 0.0652	972.9	976.9	980.8	984.7	988.4
298.15 K, x1 = 0.0679	972.2	976.1	980	983.9	987.6
298.15 K, x1 = 0.0722	971	974.9	978.7	982.6	986.3
298.15 K, x1 = 0.0801	968.6	972.4	976.2	980	983.7
298.15 K, x1 = 0.084	967.9	971.8	975.7	979.5	983.2
298.15 K, x1 = 0.0879	966.7	970.6	974.4	978.2	981.9
298.15 K, x1 = 0.0926	965.6	969.3	973.2	976.9	980.6
298.15 K, x1 = 0.0958	964.6	968.5	972.4	976.1	979.8
298.15 K, x1 = 0.1006	963.2	967.1	971	974.8	978.5
298.15 K, x1 = 0.1111	960.2	964.1	968	971.7	975.4
298.15 K, x1 = 0.1225	956.8	960.7	964.7	968.5	972.2
298.15 K, x1 = 0.1296	954.9	958.8	962.8	966.7	970.4
298.15 K, x1 = 0.1402	951.8	955.8	961.3	963.7	967.3
298.15 K, x1 = 0.151	948.4	952.5	956.6	960.5	964.3
298.15 K, x1 = 0.1601	945.6	949.8	953.9	957.9	961.7
298.15 K, x1 = 0.1703	942.5	946.7	950.9	955	958.9
298.15 K, x1 = 0.18	939.8	943.9	948.1	952.2	956.2
298.15 K, x1 = 0.1903	936.5	940.9	945.2	949.3	953.3
298.15 K, x1 = 0.1996	933.5	938	942.3	946.5	950.5
298.15 K, x1 = 0.2269	925.4	930	934.5	938.7	942.9
298.15 K, x1 = 0.2502	918.5	923.3	928	932.4	936.7
298.15 K, x1 = 0.2745	911.7	916.6	921.3	925.9	930.3
298.15 K, x1 = 0.3009	904.5	909.6	914.5	919.2	923.7
298.15 K, x1 = 0.35	891.9	897.1	902.3	907.2	911.9
298.15 K, x1 = 0.4034	879.4	884.9	890.4	895.5	900.4
298.15 K, x1 = 0.4501	868.8	874.7	880.4	885.7	890.8
298.15 K, x1 = 0.498	859.3	865.4	871.3	876.8	882
298.15 K, x1 = 0.5501	849.5	855.8	861.9	867.6	873
298.15 K, x1 = 0.5998	840.9	847.4	853.7	859.5	865.1
298.15 K, x1 = 0.6489	832.7	839.5	846	852	857.7
298.15 K, x1 = 0.6967	825.2	832.3	839	845.1	851
298.15 K, x1 = 0.7475	818.2	825.4	832.3	838.5	844.5
298.15 K, x1 = 0.7996	810.9	818.3	825.4	831.9	838.1
298.15 K, x1 = 0.8484	804.4	812.1	819.3	825.9	832.3
298.15 K, x1 = 0.8993	798	805.8	813.3	820	826.5
298.15 K, x1 = 0.9503	791.7	799.9	807.5	814.5	821
298.15 K, x1 = 1	785.7	794	801.9	808.9	815.7
323.15 K, x1 = 0.003	986.5	990.8	994.9	–	–
323.15 K, x1 = 0.0042	985.4	989.6	993.9	–	–
323.15 K, x1 = 0.0082	984	988.2	992.4	–	–
323.15 K, x1 = 0.0119	982.7	986.9	991.1	–	–
323.15 K, x1 = 0.0158	980.5	984.7	988.9	–	–
323.15 K, x1 = 0.0184	979.2	983.3	987.5	–	–
323.15 K, x1 = 0.0219	978	982.2	986.3	–	–
323.15 K, x1 = 0.0255	976.5	980.6	984.7	–	–
323.15 K, x1 = 0.0279	974.8	979	983.1	–	–
323.15 K, x1 = 0.0315	973.9	978.1	982.2	–	–
323.15 K, x1 = 0.0366	971.4	975.6	979.6	–	–
323.15 K, x1 = 0.0392	970.2	974.3	978.4	–	–
323.15 K, x1 = 0.0439	968.6	972.8	976.8	–	–
323.15 K, x1 = 0.0483	966.6	970.7	974.8	–	–
323.15 K, x1 = 0.0516	965.9	970	974	–	–
323.15 K, x1 = 0.0559	964.5	968.6	972.7	–	–
323.15 K, x1 = 0.06	962.9	967.1	971.2	–	–
323.15 K, x1 = 0.0652	960.9	965	969.1	–	–
323.15 K, x1 = 0.0679	960.2	964.3	968.3	–	–
323.15 K, x1 = 0.0722	958.3	962.5	966.6	–	–
323.15 K, x1 = 0.0801	955.1	959.3	963.4	–	–
323.15 K, x1 = 0.084	954.7	958.9	963	–	–
323.15 K, x1 = 0.0879	952.9	957.1	961.2	–	–
323.15 K, x1 = 0.0926	951.4	955.5	959.6	–	–
323.15 K, x1 = 0.0958	950.1	954.4	958.5	–	–
323.15 K, x1 = 0.1006	948.5	952.8	956.9	–	–
323.15 K, x1 = 0.1111	944.7	949	953.2	–	–
323.15 K, x1 = 0.1225	940.6	945.1	–	–	–
323.15 K, x1 = 0.1296	938.2	942.6	–	–	–
323.15 K, x1 = 0.1402	934.5	939	–	–	–
323.15 K, x1 = 0.151	930.7	935.2	–	–	–
323.15 K, x1 = 0.1601	927.5	932.2	–	–	–
323.15 K, x1 = 0.1703	924	928.8	–	–	–
323.15 K, x1 = 0.18	920.6	925.5	–	–	–
323.15 K, x1 = 0.1903	917.3	922.1	–	–	–
323.15 K, x1 = 0.1996	914.1	919	–	–	–
323.15 K, x1 = 0.2269	905.2	910.3	–	–	–
323.15 K, x1 = 0.2502	898.1	903.4	–	–	–
323.15 K, x1 = 0.2745	890.8	896.3	–	–	–
323.15 K, x1 = 0.3009	883.5	889.2	–	–	–
323.15 K, x1 = 0.35	870.2	876.2	–	–	–
323.15 K, x1 = 0.4034	857.3	863.7	–	–	–
323.15 K, x1 = 0.4501	846.7	853.3	–	–	–
323.15 K, x1 = 0.498	837	843.9	–	–	–
323.15 K, x1 = 0.5501	826.9	834.3	–	–	–
323.15 K, x1 = 0.5998	818.4	826.3	–	–	–
323.15 K, x1 = 0.6489	810.1	817.9	–	–	–
323.15 K, x1 = 0.6967	802.8	810.9	–	–	–
323.15 K, x1 = 0.7475	795.4	803.8	–	–	–
323.15 K, x1 = 0.7996	788.4	796.9	–	–	–
323.15 K, x1 = 0.8484	781.9	790.8	–	–	–
323.15 K, x1 = 0.8993	775.6	784.7	–	–	–
323.15 K, x1 = 0.9503	769.5	779	–	–	–
323.15 K, x1 = 1	763.7	773.4	–	–	–
